Results taken from patent US8226943B2, “Antibodies to notch receptors” (OncoMed Pharmaceuticals, Inc., priority 2008, dated 2012).

How the values were obtained:
[1] = test system: Colo-205 colon tumor cells; assay: Colo-205 colon tumor xenograft growth; type: in vivo, mice; conditions: for Colo205 Tumor vol relative to the control group: 15 mg/kg once per week; for growth of Colo205 colon tumors: 15 mg/kg once per week after tumors established
Experimental: In one experiment, the 1×10^7 viable Colo-205 colon tumor cells were injected into 6-8 week-old immunodeficient bg/nu XID female mice on a Swiss CD-1 background. Tumors were allowed to grow to a size of between 65 to 200 mm^3 after which mice were randomized (n=10 per experimental group), and antibodies administration begun. Animals were treated with 15 mg/kg of either control 1B7.11 antibodies or anti-Notch2/3 59R1 antibodies once weekly. Tumor size was measured twice weekly, and tumor volume was calculated as described (see Michieli et al., 2004, Cancer Cell, 6:61-73).
The 59R1 IgG2 antibody was also tested in vivo in the breast tumor xenograft lines OMP-B34, OMP-B39, OMP-B44, PE13, and UM-T1, the pancreas tumor xenograft line OMP-PN8, and the colon tumor xenograft line OMP-C8. These tumor xenograft lines were established by adhering to procedures described in Al-Hajj et al., 2003, Proc. Natl. Acad. Sci. USA, 100:3983-3988. Female NOD/SCID immuno-compromised mice 7-10 weeks old were used for the establishment of the breast tumor xenografts and male NOD/SCID mice were used for the OMP-Pn8 and OMP-C8 tumor-models (Harlan, Indianapolis, Ind.). The 59R1 IgG2 antibody was also tested in vivo in a Colo-205 colon tumor xenograft model. Female immunodeficient bg/nu XID mice on a Swiss CD-1 background were used for the Colo-205 xenograft tumor model. In case of the breast cancer models, slow-releasing estrogen pellets (0.36 mg) had to be implanted. Mice were subcutaneously injected on the right flank with 50,000 (OMP-B34, OMP-B39, OMP-B44, PE13, and UM-T1) or 1×10^7 (Colo-205) viable cells, respectively, in a mixture of PBS (without magnesium or calcium) and Matrigel at a 1:1 ratio. The injected total volume per mouse was 200 μl with 50% being Matrigel. Once the tumor had reached a size between 65-200 mm^3, the mice were randomized. Antibodies were administered weekly and tumors measured twice weekly. LZ1 (a human antibody that recognizes lyzozyme) or 1B711 (a murine IgG1 antibody that recognizes the hapten trinitrophenol) was used as a control antibody for treatment of each tumor type. Tumor volume was calculated as described Al-Hajj et al. (2003). Data are expressed as the mean and the mean±S.E.M. Group means were compared using Student's two-tailed, unpaired t-test. […] All statistical analysis was performed using Microsoft EXCEL and Graph Pad PRISM.
In another embodiment, NOD/SCID mice were injected with Colo205 colon tumor cells. The mice were treated with anti-Notch2/3 antibody 59R1, anti-Notch2/3 antibody 59R5 or control antibody. Antibodies were dosed at 15 mg/kg once per week after tumors had been established.
(§1) Tumor volumes and p values for each experiment are shown relative to the control group. The PE13, C28 and Colo205 studies were carried out as described in Example 14. PN8 studies were carried out as described above. For the PN8 experiment, the control is gemcitabine alone and values for 59R1 and 59R5 are the combinations with gemcitabine. Antibodies were dosed once per week at 15 mg/kg for all experiments.

hNotch1 = biological target: T1, hNotch1 (Homo sapiens, UniProt P46531); assay: Biacore affinity, human Notch1; type: binding; conditions: Table 6, Biacore; read-out: IgG Dissociation Constant (KD) h-Notch1
T1 construct: recombinant human and mouse Notch proteins (EGF10-15 for Notch1, 2, & 4; EGF9-14 for Notch3) were immobilized on a CM5 chip
Experimental: The affinities for human and mouse Notch1, Notch2, Notch3, and Notch4 were determined using a Biacore 2000 instrument. Briefly, recombinant human and mouse Notch proteins (EGF10-15 for Notch1, 2, & 4; EGF9-14 for Notch3) were immobilized on a CM5 chip using standard amine based chemistry (NHS/EDC). For hNotch2, EGF1-12 was also tested for binding. Different antibody concentrations (1-100 nM) were injected over the protein surfaces and kinetic data were collected over time. The data was fit using the simultaneous global fit equation to yield dissociation constants (KD, nM) for each Notch (Table 3).
The sequences of the heavy chain and light chain are provided in SEQ ID NO: 49 and SEQ ID NO:18, respectively. The heavy chain variable region is provided in SEQ ID NO:50 and the light chain variable region is provide SEQ ID NO:13. The heavy chain CDR3 sequence of 59R5 comprises SIFYTT, SEQ ID NO:51. The other CDR sequences of 59R5 are identical to 59R1. […] Both antibodies bind human and murine Notch2 and Notch3 receptors with sub-nanomolar affinity (see Table 6).

C28 colon tumor cells = assay: C28 colon tumor xenograft growth; type: in vivo, NOD-SCID mice; conditions: for C28 Tumor vol relative to the control group / growth of C28 colon tumors: 15 mg/kg once per week; for growth of C28 colon tumors: preventative mode
Experimental: C28 colon tumor cells (10,000 cells per mouse) were injected subcutaneously into the flank region of NOD-SCID mice. Tumors were allowed to grow for 24 days until they had reached an average volume of ˜130 mm^3. Animals were randomized into four treatment groups (n=10/group) and treatments were initiated. One group received a control antibody (1B711) at 10 mg/kg twice per week; one group received irintoecan at 7.5 mg/kg once per week plus the control antibody at 10 mg/kg twice per week; one group received 59R1 at 10 mg/kg twice per week, and the fourth group received the combination of 59R1 at 10 mg/kg twice per week and irinotecan at 7.5 mg/kg once per week. Tumor volumes were measured on the indicated days.
In another embodiment, NOD/SCID mice were injected with C28 colon tumor cells. The mice were treated with anti-Notch2/3 antibody 59R1, anti-Notch2/3 antibody 59R5 or control antibody. Antibodies were dosed at 15 mg/kg once per week in a “preventative” mode where dosing was initiated two days after cell injection.
as §1

PE13 tumors = assay: Microarray analysis of 59R1 and 59R5 treated PE13 tumors; type: in vivo, mice; conditions: for Fold Foxc2 / Fold Gzma / Fold Hey2 / Fold Heyl / Fold Mmp9 / Fold Notch3 / Fold Pdcd1lg2 / Fold Rgs4 / Fold Rgs5: treated vs. control, mean of 3 animals per group
Text: The numbers are mean differential expression values for treated vs. control animals, with 3 animals per group.

[2] = established tumors, 15 mg/kg once a week

T1 sequence (P46531 372-601 limits assumed): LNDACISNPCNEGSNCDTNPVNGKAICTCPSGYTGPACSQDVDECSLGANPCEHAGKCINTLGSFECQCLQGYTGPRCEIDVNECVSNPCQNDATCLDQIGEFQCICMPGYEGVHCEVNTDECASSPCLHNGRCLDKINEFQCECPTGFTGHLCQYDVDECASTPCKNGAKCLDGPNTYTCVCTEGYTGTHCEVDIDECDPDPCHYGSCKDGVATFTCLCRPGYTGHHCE

Kd (hNotch1) [nM]	Substance	Colo205 Tumor vol relative to the control group [1]	growth of Colo205 colon tumors [1]	Colo205 tumor growth, combination of 59R1 plus bevacizumab (AVASTIN) versus either alone [1, 2]	Colo205 tumor growth, monotherapy relative to control antibody (LZ1) [1, 2]	Colo-205 tumor growth compared to control ([1]; established tumors, 15 mg/kg once weekly, control 1B7.11)	C28 Tumor vol relative to the control group (C28 colon tumor cells)	growth of C28 colon tumors (C28 colon tumor cells)	C28 tumor growth, combination of 59R1 and irinotecan relative to the irinotecan group (C28 colon tumor cells; 59R1 10 mg/kg twice per week and irinotecan 7.5 mg/kg once per week)	C28 tumor growth, 59R1 alone relative to the control antibody group (C28 colon tumor cells; established tumors, 10 mg/kg twice per week)	Fold Foxc2 (PE13 tumors)	Fold Gzma (PE13 tumors)	Fold Hey2 (PE13 tumors)	Fold Heyl (PE13 tumors)	Fold Mmp9 (PE13 tumors)	Fold Notch3 (PE13 tumors)	Fold Pdcd1lg2 (PE13 tumors)	Fold Rgs4 (PE13 tumors)	Fold Rgs5 (PE13 tumors)	Notch pathway as measured by gene expression (Foxc2, Hey2, Heyl, Notch3) (PE13 tumors; microarray, p<0.01)
> 10	59R1: human IgG2 antibody binding Notch2 and Notch3; heavy and light chain SEQ ID NO:16 and 18; ATCC PTA-9547	0.68	inhibited	even greater inhibition of tumor growth	significantly inhibited growth	significantly reduced	0.29	inhibited	inhibited	inhibited	−5.10	7.42	−4.40	−3.33	−1.92	−2.10	2.36	−2.71	−4.32	–
> 10	59R5: human antibody that specifically binds human Notch 2 and human Notch 3; heavy and light chain SEQ ID NO:49 and 18; ATCC PTA-10170	0.61	inhibited	–	–	–	0.38	inhibited	–	–	−3.00	2.80	−2.46	−2.79	−2.35	−1.86	4.97	−2.90	−2.14	significantly inhibited the Notch pathway
